Where “and” joins values, the source holds several entries; their conditions need not be identical. Identical values can stand only once.
Experiments:
Assay in all cases: biochemical
Assay type in all cases: biochemical
various kinases [1] = molecular target: various kinases (Homo sapiens, UniProt O00418); details: EEF2K
various kinases [2] = molecular target: various kinases (Homo sapiens, UniProt P42679); details: MATK (HYL)
various kinases [3] = molecular target: various kinases (Homo sapiens, UniProt P45983); details: MAPK8 (JNK1)
various kinases (Homo sapiens, UniProt P45983), sequence (P45983 whole entry): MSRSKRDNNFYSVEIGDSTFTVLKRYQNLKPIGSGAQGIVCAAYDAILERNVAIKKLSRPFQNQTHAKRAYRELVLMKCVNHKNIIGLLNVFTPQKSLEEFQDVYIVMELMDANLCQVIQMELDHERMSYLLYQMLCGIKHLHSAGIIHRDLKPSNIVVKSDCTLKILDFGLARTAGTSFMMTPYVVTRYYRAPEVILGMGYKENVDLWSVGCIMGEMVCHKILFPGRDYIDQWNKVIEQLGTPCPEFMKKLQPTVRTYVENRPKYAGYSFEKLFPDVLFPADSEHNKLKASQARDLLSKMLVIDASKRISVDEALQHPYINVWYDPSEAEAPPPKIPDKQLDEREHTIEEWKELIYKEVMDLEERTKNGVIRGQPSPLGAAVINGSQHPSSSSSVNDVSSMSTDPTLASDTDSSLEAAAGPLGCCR

various kinases [4] = molecular target: various kinases (Homo sapiens, UniProt P80192); details: MAP3K9 (MLK1)
various kinases (Homo sapiens, UniProt P80192), sequence (P80192 whole entry): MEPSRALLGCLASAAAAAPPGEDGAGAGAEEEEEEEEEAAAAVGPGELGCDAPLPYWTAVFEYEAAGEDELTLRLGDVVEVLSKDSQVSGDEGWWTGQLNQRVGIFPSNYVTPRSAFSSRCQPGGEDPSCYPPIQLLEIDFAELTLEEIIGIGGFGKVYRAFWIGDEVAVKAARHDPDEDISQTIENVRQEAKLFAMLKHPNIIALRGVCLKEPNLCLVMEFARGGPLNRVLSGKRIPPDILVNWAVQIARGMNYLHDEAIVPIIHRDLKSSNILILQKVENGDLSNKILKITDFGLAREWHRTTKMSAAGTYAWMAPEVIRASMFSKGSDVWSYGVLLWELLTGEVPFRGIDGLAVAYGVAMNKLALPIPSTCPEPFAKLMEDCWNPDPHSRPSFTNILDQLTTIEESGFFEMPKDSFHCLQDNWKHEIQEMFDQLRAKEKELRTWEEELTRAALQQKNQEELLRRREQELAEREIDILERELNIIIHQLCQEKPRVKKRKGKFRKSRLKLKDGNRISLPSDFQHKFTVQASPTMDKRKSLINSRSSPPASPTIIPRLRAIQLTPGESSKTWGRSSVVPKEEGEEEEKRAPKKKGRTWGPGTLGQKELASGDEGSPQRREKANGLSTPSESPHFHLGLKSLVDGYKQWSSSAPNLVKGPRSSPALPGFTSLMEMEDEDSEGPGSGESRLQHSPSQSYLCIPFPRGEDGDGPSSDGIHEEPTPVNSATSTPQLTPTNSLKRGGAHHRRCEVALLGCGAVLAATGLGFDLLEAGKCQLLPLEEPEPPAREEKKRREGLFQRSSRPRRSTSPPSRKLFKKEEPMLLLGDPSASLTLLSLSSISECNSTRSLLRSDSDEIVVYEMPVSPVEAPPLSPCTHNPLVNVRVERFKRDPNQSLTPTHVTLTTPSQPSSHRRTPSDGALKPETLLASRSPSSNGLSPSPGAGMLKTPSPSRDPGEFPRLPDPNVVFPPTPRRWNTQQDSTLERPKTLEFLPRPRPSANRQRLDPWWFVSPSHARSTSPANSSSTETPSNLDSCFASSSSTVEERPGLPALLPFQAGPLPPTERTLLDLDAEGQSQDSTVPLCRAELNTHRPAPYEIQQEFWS

various kinases [5] = molecular target: various kinases (Homo sapiens, UniProt Q05655); details: kinase PRKCD (PKC delta); ZLYTE
various kinases (Homo sapiens, UniProt Q05655), sequence (Q05655 whole entry): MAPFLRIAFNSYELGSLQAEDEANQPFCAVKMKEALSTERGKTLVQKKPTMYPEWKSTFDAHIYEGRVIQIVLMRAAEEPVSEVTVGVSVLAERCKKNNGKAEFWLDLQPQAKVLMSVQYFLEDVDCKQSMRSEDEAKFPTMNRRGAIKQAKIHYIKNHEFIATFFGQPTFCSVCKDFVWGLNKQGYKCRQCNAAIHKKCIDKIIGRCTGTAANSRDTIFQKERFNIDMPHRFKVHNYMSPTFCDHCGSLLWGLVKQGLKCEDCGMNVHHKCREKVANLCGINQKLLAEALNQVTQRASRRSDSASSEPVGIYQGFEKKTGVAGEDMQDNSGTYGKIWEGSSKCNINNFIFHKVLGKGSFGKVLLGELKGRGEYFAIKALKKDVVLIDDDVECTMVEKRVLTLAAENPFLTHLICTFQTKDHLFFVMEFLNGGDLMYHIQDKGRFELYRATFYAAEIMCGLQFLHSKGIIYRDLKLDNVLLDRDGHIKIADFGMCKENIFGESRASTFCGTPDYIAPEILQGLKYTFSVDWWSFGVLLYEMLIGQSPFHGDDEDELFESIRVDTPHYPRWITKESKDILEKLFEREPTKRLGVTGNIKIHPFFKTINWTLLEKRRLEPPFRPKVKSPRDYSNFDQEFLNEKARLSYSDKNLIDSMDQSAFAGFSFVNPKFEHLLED

various kinases [6] = molecular target: T1, various kinases (Homo sapiens, UniProt Q13043); details: kinase STK4 (MST1); ZLYTE
T1 sequence (Q13043 1-487): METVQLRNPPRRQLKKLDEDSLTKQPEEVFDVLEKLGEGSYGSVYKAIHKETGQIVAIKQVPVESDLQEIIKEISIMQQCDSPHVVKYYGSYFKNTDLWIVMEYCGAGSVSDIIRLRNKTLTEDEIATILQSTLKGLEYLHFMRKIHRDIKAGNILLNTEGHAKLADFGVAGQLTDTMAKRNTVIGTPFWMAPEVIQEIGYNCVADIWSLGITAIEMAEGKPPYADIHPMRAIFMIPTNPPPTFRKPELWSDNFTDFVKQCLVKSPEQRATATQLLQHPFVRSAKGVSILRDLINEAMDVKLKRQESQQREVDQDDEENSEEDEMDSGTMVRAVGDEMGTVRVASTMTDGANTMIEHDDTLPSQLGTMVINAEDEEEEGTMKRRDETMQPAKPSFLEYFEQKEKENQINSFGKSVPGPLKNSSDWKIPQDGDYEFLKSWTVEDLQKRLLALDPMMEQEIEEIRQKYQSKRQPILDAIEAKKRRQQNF

various kinases [7] = molecular target: various kinases (Homo sapiens, UniProt Q13627); details: DYRK1A
various kinases [8] = molecular target: various kinases (Homo sapiens, UniProt Q13882); details: kinase PTK6 (Brk); ZLYTE
various kinases (Homo sapiens, UniProt Q13882), sequence (Q13882 whole entry): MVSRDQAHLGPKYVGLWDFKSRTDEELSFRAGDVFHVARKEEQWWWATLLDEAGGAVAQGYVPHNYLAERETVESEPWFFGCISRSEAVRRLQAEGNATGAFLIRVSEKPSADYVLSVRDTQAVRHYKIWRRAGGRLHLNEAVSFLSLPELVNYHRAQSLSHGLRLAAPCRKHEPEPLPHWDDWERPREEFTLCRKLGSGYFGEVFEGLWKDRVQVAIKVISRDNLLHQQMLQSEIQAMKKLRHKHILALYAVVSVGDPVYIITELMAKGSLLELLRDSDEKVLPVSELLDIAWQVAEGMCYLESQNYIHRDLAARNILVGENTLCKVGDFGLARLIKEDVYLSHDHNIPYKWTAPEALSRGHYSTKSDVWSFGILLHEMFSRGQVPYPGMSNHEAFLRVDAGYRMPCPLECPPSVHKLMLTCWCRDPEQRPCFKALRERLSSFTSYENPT

various kinases [9] = molecular target: various kinases (Homo sapiens, UniProt Q8WTQ7); details: GRK7
various kinases (Homo sapiens, UniProt Q8WTQ7), sequence (Q8WTQ7 whole entry): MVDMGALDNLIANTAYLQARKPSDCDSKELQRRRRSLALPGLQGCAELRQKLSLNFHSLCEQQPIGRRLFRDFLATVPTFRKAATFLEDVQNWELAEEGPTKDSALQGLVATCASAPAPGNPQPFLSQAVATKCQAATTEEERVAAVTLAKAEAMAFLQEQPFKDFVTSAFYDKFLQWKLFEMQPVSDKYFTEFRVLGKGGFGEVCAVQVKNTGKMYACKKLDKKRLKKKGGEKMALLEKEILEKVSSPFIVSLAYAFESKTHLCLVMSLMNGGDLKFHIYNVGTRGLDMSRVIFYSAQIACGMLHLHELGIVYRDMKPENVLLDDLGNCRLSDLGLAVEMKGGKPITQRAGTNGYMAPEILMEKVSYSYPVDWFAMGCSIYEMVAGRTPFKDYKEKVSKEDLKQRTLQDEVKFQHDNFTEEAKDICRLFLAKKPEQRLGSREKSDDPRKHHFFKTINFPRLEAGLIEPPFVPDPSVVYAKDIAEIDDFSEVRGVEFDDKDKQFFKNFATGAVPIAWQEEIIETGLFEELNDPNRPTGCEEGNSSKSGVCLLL

various kinases [10] = molecular target: T2, various kinases (Homo sapiens, UniProt Q96BR1); details: kinase SGKL (SGK3); ZLYTE
T2 sequence (Q96BR1 1-496): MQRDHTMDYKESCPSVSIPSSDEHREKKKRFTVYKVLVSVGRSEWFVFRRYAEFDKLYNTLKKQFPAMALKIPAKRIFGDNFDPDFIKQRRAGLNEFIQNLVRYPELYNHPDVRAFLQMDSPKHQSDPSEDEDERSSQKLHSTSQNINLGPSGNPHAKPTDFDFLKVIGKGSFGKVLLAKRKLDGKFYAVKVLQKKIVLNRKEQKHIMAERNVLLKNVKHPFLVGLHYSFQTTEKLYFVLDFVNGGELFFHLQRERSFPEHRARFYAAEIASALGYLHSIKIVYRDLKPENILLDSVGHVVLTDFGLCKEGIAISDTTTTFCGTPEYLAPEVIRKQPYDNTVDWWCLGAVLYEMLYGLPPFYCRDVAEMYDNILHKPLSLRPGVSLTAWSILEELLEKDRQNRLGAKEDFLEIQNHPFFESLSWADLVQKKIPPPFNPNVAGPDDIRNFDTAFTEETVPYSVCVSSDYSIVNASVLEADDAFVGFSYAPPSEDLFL

various kinases [11] = molecular target: T3, various kinases (Homo sapiens, UniProt Q9UL54); details: kinase TAOK2 (TAO1); ZLYTE
T3 sequence (Q9UL54 1-1235): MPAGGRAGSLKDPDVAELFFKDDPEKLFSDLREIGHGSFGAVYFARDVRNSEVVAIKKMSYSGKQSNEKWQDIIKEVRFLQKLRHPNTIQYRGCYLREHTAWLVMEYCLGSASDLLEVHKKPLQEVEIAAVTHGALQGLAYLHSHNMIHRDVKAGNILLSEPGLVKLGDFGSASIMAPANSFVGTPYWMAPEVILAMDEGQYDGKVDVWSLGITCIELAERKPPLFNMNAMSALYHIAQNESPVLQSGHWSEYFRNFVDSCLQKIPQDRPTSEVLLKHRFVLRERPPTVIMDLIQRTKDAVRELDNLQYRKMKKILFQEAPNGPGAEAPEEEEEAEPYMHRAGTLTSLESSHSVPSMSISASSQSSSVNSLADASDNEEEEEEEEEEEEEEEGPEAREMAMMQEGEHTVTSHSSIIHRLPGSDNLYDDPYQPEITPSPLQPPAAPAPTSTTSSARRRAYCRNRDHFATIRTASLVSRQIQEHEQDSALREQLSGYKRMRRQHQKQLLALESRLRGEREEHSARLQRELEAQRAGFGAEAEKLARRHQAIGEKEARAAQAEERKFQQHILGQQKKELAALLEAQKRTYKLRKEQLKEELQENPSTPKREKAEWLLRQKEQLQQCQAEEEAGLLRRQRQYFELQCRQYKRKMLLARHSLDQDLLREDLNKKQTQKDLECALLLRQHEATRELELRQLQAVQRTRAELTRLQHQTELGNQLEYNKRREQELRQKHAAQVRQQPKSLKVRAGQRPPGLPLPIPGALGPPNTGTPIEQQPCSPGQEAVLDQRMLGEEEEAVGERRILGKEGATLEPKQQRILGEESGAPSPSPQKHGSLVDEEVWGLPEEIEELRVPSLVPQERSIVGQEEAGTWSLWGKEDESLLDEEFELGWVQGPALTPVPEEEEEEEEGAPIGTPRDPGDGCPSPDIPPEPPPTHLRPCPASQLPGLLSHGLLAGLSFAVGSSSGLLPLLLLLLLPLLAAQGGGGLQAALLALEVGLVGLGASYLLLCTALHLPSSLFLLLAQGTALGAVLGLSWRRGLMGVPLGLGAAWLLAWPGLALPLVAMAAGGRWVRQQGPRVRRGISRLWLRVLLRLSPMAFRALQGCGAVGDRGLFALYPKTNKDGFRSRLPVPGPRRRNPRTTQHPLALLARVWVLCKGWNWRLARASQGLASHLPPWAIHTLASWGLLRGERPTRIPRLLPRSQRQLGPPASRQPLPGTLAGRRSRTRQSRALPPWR

various kinases (Homo sapiens, UniProt O00418), sequence (O00418 whole entry): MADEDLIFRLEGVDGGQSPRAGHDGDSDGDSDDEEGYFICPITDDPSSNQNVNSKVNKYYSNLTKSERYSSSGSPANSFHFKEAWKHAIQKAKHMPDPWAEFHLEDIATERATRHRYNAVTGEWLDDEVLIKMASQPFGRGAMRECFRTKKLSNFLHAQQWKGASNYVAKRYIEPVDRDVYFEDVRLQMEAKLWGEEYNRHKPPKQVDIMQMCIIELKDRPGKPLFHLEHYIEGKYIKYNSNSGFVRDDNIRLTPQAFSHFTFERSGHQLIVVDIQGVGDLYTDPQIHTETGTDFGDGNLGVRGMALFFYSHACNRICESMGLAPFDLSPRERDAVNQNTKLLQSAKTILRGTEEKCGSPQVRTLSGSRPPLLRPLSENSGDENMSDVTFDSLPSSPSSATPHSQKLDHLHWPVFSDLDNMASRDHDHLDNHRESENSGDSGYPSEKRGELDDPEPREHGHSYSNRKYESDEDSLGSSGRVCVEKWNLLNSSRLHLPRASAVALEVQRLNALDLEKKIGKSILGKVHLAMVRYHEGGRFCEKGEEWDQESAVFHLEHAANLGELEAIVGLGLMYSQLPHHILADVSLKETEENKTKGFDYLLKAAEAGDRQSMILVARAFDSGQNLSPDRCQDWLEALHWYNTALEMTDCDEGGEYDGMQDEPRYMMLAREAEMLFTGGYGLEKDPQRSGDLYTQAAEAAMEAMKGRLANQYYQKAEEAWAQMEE
various kinases (Homo sapiens, UniProt P42679), sequence (P42679 whole entry): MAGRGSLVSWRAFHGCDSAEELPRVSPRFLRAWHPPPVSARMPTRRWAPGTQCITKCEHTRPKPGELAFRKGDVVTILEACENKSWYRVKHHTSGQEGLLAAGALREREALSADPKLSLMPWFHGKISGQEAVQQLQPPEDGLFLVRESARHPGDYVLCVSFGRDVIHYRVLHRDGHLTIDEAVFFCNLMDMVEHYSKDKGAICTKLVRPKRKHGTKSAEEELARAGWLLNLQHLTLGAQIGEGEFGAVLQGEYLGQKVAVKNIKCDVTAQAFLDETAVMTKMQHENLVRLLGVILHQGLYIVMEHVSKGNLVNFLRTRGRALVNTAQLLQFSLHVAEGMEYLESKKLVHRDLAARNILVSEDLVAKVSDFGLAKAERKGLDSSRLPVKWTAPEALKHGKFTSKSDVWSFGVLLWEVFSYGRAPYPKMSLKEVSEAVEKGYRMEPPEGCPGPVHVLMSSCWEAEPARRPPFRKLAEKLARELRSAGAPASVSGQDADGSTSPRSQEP

COc1ccc2c(c1)[C@]1(C[C@H]1c1ccc3c(/C=C/c4ccc(CN5C[C@@H](C)O[C@@H](C)C5)cc4)n[nH]c3c1)C(=O)N2 [CFI-400945]
% Inhibition (various kinases [1]): 2% and 3%
% Inhibition (various kinases [2]): 6% and 4%
% Inhibition (various kinases [3]): -3% and -1%
% Inhibition (various kinases [4]): 9% and 2%
% Inhibition Average (various kinases [5]): -2%
% Inhibition Duplicate #1 (various kinases [5]): -8%
% Inhibition Duplicate #2 (various kinases [5]): 4%
% Inhibition Average (various kinases [6]): 23%
% Inhibition Duplicate #1 (various kinases [6]): 22%
% Inhibition Duplicate #2 (various kinases [6]): 24%
% Inhibition (various kinases [7]): 2% and 4%
% Inhibition Average (various kinases [8]): 4%
% Inhibition Duplicate #1 (various kinases [8]): 5%
% Inhibition Duplicate #2 (various kinases [8]): 3%
% Inhibition (various kinases [9]): 13% and 12%
% Inhibition Average (various kinases [10]): 3%
% Inhibition Duplicate #1 (various kinases [10]): 4%
% Inhibition Duplicate #2 (various kinases [10]): 2%
% Inhibition Average (various kinases [11]): 4%
% Inhibition Duplicate #1 (various kinases [11]): 3%
% Inhibition Duplicate #2 (various kinases [11]): 5%

— publication PMC5762315, “Inhibition of polo-like kinase 4 (PLK4): a new therapeutic option for rhabdoid tumors and pediatric medulloblastoma” (Oncotarget, 2017)
